Consider 18 compounds from US8669246B2, “Substituted amide compound” (Astellas Pharma Inc., priority 2009, dated 2014).

Data set [1] deals with T1, human LPA1 (Homo sapiens, UniProt Q92633).
T1 construct: expressed in transfected cells
Put plainly: Antagonistic action on human LPA1: inhibition of LPA-stimulated increase in intracellular calcium ion concentration in human LPA1-CHO cells. The settings on record: LPA 100 nM, Fluo-4/FLIPR calcium signal. Type of data set: cell-based. As to the method:
Antagonistic Action of Compound of Formula (I) on Human LPA1
The antagonistic action on a human LPA 1 was evaluated with an index of an inhibitory action on the LPA-stimulated increase in intracellular calcium ion concentration, using human LPA 1-CHO cells [cells in which human LPA1 receptors are stably expressed in CHO (dhfr gene-deficient) cell lines].
Establishment of human LPA1-CHO cells was performed based on the basic genetic engineering techniques.
The established cells were maintained by passage in a nucleic acid-free α-MEM medium (Invitrogen) containing 10% FBS, 1% penicillin/streptomycin (Invitrogen), and 100 nM methotrexate, and before experiment, the medium was replaced with a medium that had been reduced to 1% of the […] concentration, then seeded in 96-well plates to 1.5×10e^5 cells/100 μL/well, and incubated overnight.
On the day of experiment, a 0.5 μM Fluo-4 solution [a solution prepared by adding 20 mM HEPES (Sigma), […] probenecid (Nacalai Tesque), 0.05% BSA, 0.5 μM Fluo-4 AM (Dojindo Laboratories), and 0.1% Pluronic […] (Molecular Probe Co.) to a Hanks Balanced Solt Solution (Invitrogen)] was added to the cells, and Fluo-4 was loaded on the cells by incubating for 2 hours at room temperature.
After loading Fluo-4, the Fluo-4 solution was replaced with a reaction solution [a solution obtained by adding 20 mM HEPES, […] probenecid, and 0.05% BSA to a Hanks Balanced Solt Solution], and then measurement was performed using a device for measuring an intracellular calcium concentration (FLIPR tetra, Molecular Devices Inc.).
A reaction solution in which the compound of the formula (I) (with a final concentration of 0.1 nM to 10 μM) had been dissolved was added to each of the wells, the signals were measured over time for 4 minutes, then a reaction solution in which LPA (final concentration 100 nM) had been dissolved was added thereto, and the signals were measured over time for 2 minutes. The difference between the maximum and minimum response during one minute from addition of LPA was calculated. The inhibitory activity was calculated, with a response when LPA only (not including the compound) was added was taken as 0% inhibition, and a response when a reaction solution not including both of the compound and LPA was added was taken as 100% inhibition. Then the 50% inhibitory concentration was calculated as an IC50 value (nM).
Human LPA1-CHO cells used in the present test were the cells with the same sequence as described in the pamphlet of International Publication WO 99/19513 were used. Further, Ex represents Example No. as denoted below.
In general terms: Calcium flux is commonly read through the fluorescence of an indicator in the cells.

Data set [2] is described as follows: Estimation of concentration in plasma after oral administration in rats using ex vivo bioassay method. The settings on record: male, Wistar, rat, 2 hours after oral administration, estimated by ex vivo bioassay from standard curve. On the procedure: Estimation of Concentration in Plasma (2 Hours after Oral Administration) after Administration of Compound of Formula (I) in Rats Using Ex Vivo Bioassay Method
The concentration in the plasma after administration of the compound of the formula (I) in rats was estimated according to a bioassay method. That is, test compounds were orally administered to male Wistar rats (Charles River, 6-week old, and fasted), and after a certain period of time, blood was collected from the ophthalmic basilar plexus to give plasma. The compound was extracted from the plasma, and the extracted compound was dissolved in a certain amount of DMSO. Further, for the standard curve, the plasma in which the compounds at various concentrations had been dissolved was prepared separately, and the same extraction procedure was conducted.
The inhibitory action on the LPA-stimulated increase in the intracellular calcium ion concentration in LPA1-expressing cells in the DMSO extract was measured, and the plasma concentration in the individual after administration was estimated from the standard curve.

For data set [3], the system named is LPA-induced increase in urethral pressure. In words: Inhibitory action on LPA-induced increase in urethral pressure in rats under anesthesia. Type of data set: in vivo, rat (male Wistar). The settings on record: Rattus norvegicus, 5 min; 0.1 mg/kg intravenous, LPA (1-oleoyl) 3 mg/kg iv after 5 minutes, anesthetized rats, vs solvent; read-out: Inhibitory rate. On the procedure:
Inhibitory Action of Compound of Formula (I) on LPA-Induced Increase in Urethral Pressure in Rats Under Anesthesia (with Intravenous Administration at 0.1 mg/kg) Male Wistar rats (Charles River, 9- to 12-week old) were anesthetized with urethane (1.2 g/kg ip), and held in the supine position on an operating table kept at 37° C. The lower abdominal portion was midline-incised and the bladder was thus exposed. A small portion of the bladder apex was incised, a microchip pressure transducer (Millar) was inserted antegrade, and then placed in the urethra, and the urethral pressure was recorded continuously. In addition, a cannula for administration of a drug was placed into the femoral vein. After about 1 hour of stabilization, the compound of formula (I) (0.1 mg/kg) was administered intravenously. After 5 minutes, LPA (1-oleoyl) was administered intravenously at 3 mg/kg, and the changes in the urethral pressure were recorded. The inhibitory rates (%) of the compound of the formula (I) on the LPA-stimulated increase in the urethral pressure compared with those after administration of the solvent of the compound of the formula (I) were recorded.

T1 sequence (Q92633 whole entry): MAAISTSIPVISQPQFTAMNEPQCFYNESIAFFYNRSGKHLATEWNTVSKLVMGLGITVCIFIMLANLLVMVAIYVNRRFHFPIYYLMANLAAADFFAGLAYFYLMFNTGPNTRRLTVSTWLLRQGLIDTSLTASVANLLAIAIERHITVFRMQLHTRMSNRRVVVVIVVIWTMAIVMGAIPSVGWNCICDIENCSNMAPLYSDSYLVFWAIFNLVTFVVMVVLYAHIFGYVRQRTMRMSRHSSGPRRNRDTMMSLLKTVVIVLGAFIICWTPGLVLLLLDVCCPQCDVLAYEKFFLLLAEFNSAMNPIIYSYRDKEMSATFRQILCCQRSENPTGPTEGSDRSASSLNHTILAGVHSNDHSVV

In the case of `CONS(=O)(=O)NC(=O)c1nc(CN(CCCc2ccccc2)C(=O)c2cc(OC)cc(OC)c2)sc1C` [Example 134], the 50% inhibitory concentration (IC50) (commonly the concentration needed to halve the response being measured) in data set [1] was determined as 25 nM. Further, the concentration at 2 h in data set [2] was 1400 nM.
Regarding `COC(=O)N(C)S(=O)(=O)NC(=O)c1csc(CN(CCCc2ccccc2)C(=O)c2cc(OC)c(C)c(OC)c2)n1` [Example 89], the melting point (in general, the temperature of the solid-liquid transition) is 135 to 137 °C. In addition, the IC50 in data set [1] was determined as 17 nM. Also, in data set [2], the concentration at 2 h is 2400 nM.
On to `COc1ccc(C(O)C(=O)N(CCCc2ccccc2)Cc2nc(C(=O)NS(N)(=O)=O)c(C)s2)cc1` (centres unmarked) [Example 176], for which the melting point is 120 to 121 °C. In data set [1], the concentration for half-maximal inhibition (IC50) worked out at 24 nM. Moreover, in data set [2], the concentration at 2 h was 4500 nM.
As to `COc1ccc(C2(C(=O)N(CCCc3ccccc3)Cc3nc(C(=O)NS(=O)(=O)N(C)C)c(C)s3)CC2)cc1` [Example 56], in data set [1], the IC50 is 29 nM. Further, the concentration at 2 h in data set [2] is 1800 nM.
`COc1ccc(C2(C(=O)N(CCCc3cccc(F)c3)Cc3nc(C(=O)NS(=O)(=O)N(C)C)c(C)s3)CC2)nc1` [Example 208] returned a melting point of 114 to 115 °C. Also, in data set [1], the concentration for half-maximal inhibition (IC50) came out at 40 nM. Also, the inhibition in vivo at 0.1 mg/kg in data set [3] came out at 14%.
With `COc1ccc(C(O)C(=O)N(CCCc2ccccc2)Cc2nc(C(=O)NS(=O)(=O)N(C)C)c(C)s2)c(F)c1` (centres unmarked) [Example 27], the IC50 in data set [1] turned out to be 14 nM. The concentration at 2 h in data set [2] is 6500 nM.
As to `CCNS(=O)(=O)NC(=O)c1csc(CN(CCCc2ccccc2)C(=O)c2cc(OC)c(C)c(OC)c2)n1` [Example 71], the melting point was in the range of 143 to 144 °C. The IC50 in data set [1] is 16 nM. The concentration at 2 h in data set [2] was 2100 nM. Also, the inhibition in vivo at 0.1 mg/kg in data set [3] was 18%.
With `COc1cc(C(=O)N(CCCc2ccccc2)Cc2nc(C(=O)N(C)S(N)(=O)=O)cs2)cc(OC)c1C` [Example 9, N-(aminosulfonyl)-2-{[(3,5-dimethoxy-4-methylbenzoyl)(3-phenylpropyl)amino]methyl}-N-methyl-1,3-thiazole-4-carboxamide], the concentration at 2 h in data set [2] was 8300 nM. In data set [3], the inhibition in vivo at 0.1 mg/kg turned out to be 28%.
The compound `CCN(CCO)S(=O)(=O)NC(=O)c1csc(CN(CCCc2ccccc2)C(=O)c2cc(OC)c(C)c(OC)c2)n1` [Example 170] had a melting point of 127 to 129 °C. The IC50 in data set [1] was 34 nM. Also, the concentration at 2 h in data set [2] was 1800 nM.
Turning to `CCc1c(OC)cc(C(=O)N(CCCc2ccccc2)Cc2nc(C(=O)NS(=O)(=O)NC)c(C)s2)cc1OC` [Example 153], the melting point was in the range of 162 to 164 °C. Moreover, the IC50 in data set [1] was determined as 21 nM. In addition, in data set [2], the concentration at 2 h is 5200 nM. Moreover, in data set [3], the inhibition in vivo at 0.1 mg/kg turned out to be 21%.
For the compound `CCS(=O)(=O)NC(=O)c1nc(CN(CCCc2ccccc2)C(=O)[C@H](O)c2ccc(OC)cc2)sc1C` [Example 266], the melting point was in the range of 123 to 125 °C. The 50% inhibitory concentration (IC50) in data set [1] stood at 65 nM. Besides, the inhibition in vivo at 0.1 mg/kg in data set [3] came to 15%.
On to `COc1cc(C(=O)N(CCCc2ccccc2)Cc2nc(C(=O)NS(=O)(=O)N(C)CCF)c(C)s2)cc(OC)c1C` [Example 100], for which the concentration at 2 h in data set [2] was 6700 nM.
In turn, `COc1cc(OC)cc(C(=O)N(CCCc2ccccc2)Cc2nc(C(=O)NS(C)(=O)=O)c(Cl)s2)c1` [Example 145] registered a melting point of 113 to 114 °C. Also, the IC50 in data set [1] came to 23 nM. The concentration at 2 h in data set [2] was 5600 nM. The inhibition in vivo at 0.1 mg/kg in data set [3] is 16%.
In turn, `COc1ccc(CC(=O)N(CCCc2ccccc2)Cc2nc(C(=O)NS(=O)(=O)N(C)C)c(C)s2)c(OC)c1` [Example 126] yielded a melting point of 132 to 135 °C. The IC50 in data set [1] amounted to 20 nM. Besides, the concentration at 2 h in data set [2] was 8900 nM.
Take `COc1cc(C(=O)N(CCCc2ccccc2)Cc2nc(C(=O)NS(N)(=O)=O)cs2)cc(OC)c1C1CC1` [Example 131]: the melting point was 147 to 149 °C. Moreover, the half-inhibitory concentration (IC50) in data set [1] amounted to 7.2 nM. Also, in data set [3], the inhibition in vivo at 0.1 mg/kg was found to be 38%.
With `COc1cc(C(=O)N(CCCc2ccccc2)Cc2nc(C(=O)NS(=O)(=O)N(CCO)CCO)c(C)s2)cc(OC)c1C` [Example 171], in data set [2], the concentration at 2 h is 2200 nM.
As to `COc1cc(C(=O)N(CCCc2ccccc2)Cc2nc(C(=O)NS(=O)(=O)N(CCO)CCF)cs2)cc(OC)c1C` [Example 22, 2-{[(3,5-dimethoxy-4-methylbenzoyl)(3-phenylpropyl)amino]methyl}-N-{[(2-fluoroethyl)(2-hydroxyethyl)amino]sulfonyl}-1,3-thiazole-4-carboxamide], the half-inhibitory concentration (IC50) in data set [1] was 24 nM. For the same compound, the concentration at 2 h in data set [2] is 1300 nM.
The like results for `CNS(=O)(=O)NC(=O)c1nc(CN(CCCc2ccccc2)C(=O)c2cc(OC)c(C3CC3)c(OC)c2)sc1C` [Example 156] were, in that order, 15 nM and 2100 nM.
